The record followed here is EPA's ToxValDB 9.5 (doi:10.2903/j.efsa.2014.3736).

For data set [1] the following is noted: short-term; duration: 28 days; no effects.
In a further data set the test system is Anas platyrhynchos. The settings on record: reproductive.
In the next data set the test system is Bibionidae. The conditions noted are these: chronic/long-term; duration: 23 days; other.
Another data set relates to Colinus virginianus. The settings on record: acute, oral, mortality.
Another data set concerns Daphnia magna. The conditions noted are these: chronic/long-term; duration: 21 days; mortality.
The next data set deals with Plant. The conditions noted are these: chronic/long-term; duration: 28 days; frond number.
A further data set has as its system Tagia sp. The settings on record: acute; duration: 14 days; mortality.

Values after ≈ are worked out from the molar mass of the structure shown.

The term NOAEL denotes the highest tested level that showed no adverse finding. Consider `C#CCN1C(=O)COc2cc(F)c(N3C(=O)C4=C(CCCC4)C3=O)cc21` [Flumioxazin], for which the NOEC in [1] was 0.15 mg/L; with Bibionidae, 0.73 mg/kg; with Daphnia magna, 0.1 mg/L; with Oncorhynchus mykiss (chronic/long-term, duration: 21 days, growth), 0.37 mg/L; with Plant it was 6.3 µg/L. The NOEL in the data set on Anas platyrhynchos is 34.3 mg/kg-day. Also, the LD50 in the data set on Colinus virginianus (diet) is over 1510 mg/kg-day; with Colinus virginianus, over 2250 mg/kg-day; in the data set with Rattus norvegicus (acute, mortality), over 5000 mg/kg-day. The LC50 with Oncorhynchus mykiss (acute, duration: 96 hours, mortality) was 2.3 µg/mL (≈ 6.49 µM); in the data set with Tagia sp. it was over 982 mg/kg. Besides, the NOAEL with Rattus norvegicus (chronic, duration: 2 years, hematological) was 1.8 mg/kg-day; in the data set on Rattus norvegicus (developmental, oral, gavage, development), 10 mg/kg-day; in the data set on Rattus norvegicus (reproduction developmental, growth), 7.5 mg/kg-day; in the data set with Rattus norvegicus (subchronic, duration: 90 days, oral, hematological) it was 2.2 mg/kg-day.
